Laboratory results as given in ChEMBL document CHEMBL5665443, “Enzyme Inhibitor Single Concentration assay results for EUbOPEN Chemogenomics Library” (2024).

Key:
[1] = target: T1, Single-strand selective monofunctional uracil DNA glycosylase (Homo sapiens) (UniProt Q53HV7); settings: Compound Concentration 10.0 uM, Hit No;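 note: enzymatic SMUG1 assay coupled with APE1, reading fluorescence at 594 nm released when a quenched double-stranded DNA oligonucleotide substrate is cleaved and separated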
T1 sequence (whole entry): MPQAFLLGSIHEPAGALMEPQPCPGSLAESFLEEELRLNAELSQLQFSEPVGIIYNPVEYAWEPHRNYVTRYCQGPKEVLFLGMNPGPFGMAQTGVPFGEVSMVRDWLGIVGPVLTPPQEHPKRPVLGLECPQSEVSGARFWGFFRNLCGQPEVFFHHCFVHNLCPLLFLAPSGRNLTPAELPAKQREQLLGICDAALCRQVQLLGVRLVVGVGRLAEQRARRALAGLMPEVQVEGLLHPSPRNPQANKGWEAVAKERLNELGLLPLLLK
Description: Inhibition of SMUG1 by quantifying inhibition of SMUG1-mediated cleavage and dissociation of quenched duplex DNA oligonucleotides, measured as fluorescence at 594 nm. To generate a functional strand incision and increase turn-over this assay is coupled to APE1.

[2] = target: G/T mismatch-specific thymine DNA glycosylase (Homo sapiens) (UniProt Q13569); settings: Compound Concentration 10.0 uM, Hit No;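 note: human TDG cleavage of quenched duplex DNA oligonucleotides coupled to APE1, strand release read as fluorescence at 594 nm, inhibition of TDG activity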
Description: Inhibition of TDG by quantifying inhibition of TDG-mediated cleavage and dissociation of quenched duplex DNA oligonucleotides, measured as fluorescence at 594 nm. To generate a functional strand incision and increase turn-over this assay is coupled to APE1.

[3] = target: T2, Endonuclease 8-like 2 (Homo sapiens) (UniProt Q969S2); settings: Compound Concentration 10.0 uM, Hit No;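 note: fluorescence at 594 nm reports NEIL2 cutting and release of a quenched double-stranded DNA oligo substrate, reduced signal read as inhibition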
T2 sequence (whole entry): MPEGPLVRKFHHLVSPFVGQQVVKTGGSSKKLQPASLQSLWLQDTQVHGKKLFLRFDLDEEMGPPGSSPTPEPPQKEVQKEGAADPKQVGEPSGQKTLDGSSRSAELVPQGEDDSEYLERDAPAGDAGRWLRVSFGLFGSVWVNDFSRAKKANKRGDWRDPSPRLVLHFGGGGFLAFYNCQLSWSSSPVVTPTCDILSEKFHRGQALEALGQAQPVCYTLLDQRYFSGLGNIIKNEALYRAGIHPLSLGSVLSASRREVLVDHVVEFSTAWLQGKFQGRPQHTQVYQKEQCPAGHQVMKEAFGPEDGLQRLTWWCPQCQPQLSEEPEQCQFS
Description: Inhibition of NEIL2 by quantifying inhibition of NEIL2-mediated cleavage and dissociation of quenched duplex DNA oligonucleotides, measured as fluorescence at 594 nm.

[4] = target: Uracil-DNA glycosylase (Homo sapiens) (UniProt P13051); settings: Compound Concentration 10.0 uM, Hit No;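 note: UNG excision on a quenched double-stranded DNA oligo probe, with APE1 added for strand incision and turnover, read as fluorescence at 594 nm as strands separate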
Description: Inhibition of UNG by quantifying inhibition of UNG-mediated cleavage and dissociation of quenched duplex DNA oligonucleotides, measured as fluorescence at 594 nm. To generate a functional strand incision and increase turn-over this assay is coupled to APE1.

[5] = target: T3, Adenine DNA glycosylase (Homo sapiens) (UniProt Q9UIF7); settings: Compound Concentration 10.0 uM, Hit No;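 note: human MUTYH activity read as 594 nm fluorescence from cleavage and release of a quenched DNA duplex, coupled with APE1 for strand incision, lower signal meaning inhibition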
T3 sequence (whole entry): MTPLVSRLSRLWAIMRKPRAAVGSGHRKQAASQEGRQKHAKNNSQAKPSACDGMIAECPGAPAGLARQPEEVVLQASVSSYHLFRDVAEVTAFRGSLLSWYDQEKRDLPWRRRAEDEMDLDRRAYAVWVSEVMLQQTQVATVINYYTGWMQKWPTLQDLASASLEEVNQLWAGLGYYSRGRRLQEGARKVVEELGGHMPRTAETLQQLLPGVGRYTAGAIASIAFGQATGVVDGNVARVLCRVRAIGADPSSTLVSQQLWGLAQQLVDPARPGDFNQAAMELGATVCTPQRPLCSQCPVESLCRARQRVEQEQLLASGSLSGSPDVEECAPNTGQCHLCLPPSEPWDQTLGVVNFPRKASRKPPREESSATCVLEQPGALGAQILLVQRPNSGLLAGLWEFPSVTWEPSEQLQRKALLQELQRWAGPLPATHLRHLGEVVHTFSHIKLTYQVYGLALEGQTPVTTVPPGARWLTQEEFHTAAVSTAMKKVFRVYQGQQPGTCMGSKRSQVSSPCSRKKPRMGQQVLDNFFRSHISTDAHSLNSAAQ
Description: Inhibition of MUTYH by quantifying inhibition of MUTYH-mediated cleavage and dissociation of quenched duplex DNA oligonucleotides, measured as fluorescence at 594 nm. To generate a functional strand incision and increase turn-over this assay is coupled to APE1.

[6] = target: Endonuclease 8-like 1 (Homo sapiens) (UniProt Q96FI4); settings: Compound Concentration 10.0 uM, Hit No;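 note: fluorescence at 594 nm from quenched duplex DNA oligonucleotides released by NEIL1 cleavage and strand separation, reported as reduction of this enzyme activity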
Description: Inhibition of NEIL1 by quantifying inhibition of NEIL1-mediated cleavage and dissociation of quenched duplex DNA oligonucleotides, measured as fluorescence at 594 nm.

[7] = target: DNA-3-methyladenine glycosylase (Homo sapiens) (UniProt P29372); settings: Compound Concentration 10.0 uM, Hit No;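 note: enzyme assay where MPG cuts a quenched duplex DNA oligonucleotide probe, paired with APE1 for strand incision and turnover, read as fluorescence at 594 nm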
Description: Inhibition of MPG by quantifying inhibition of MPG-mediated cleavage and dissociation of quenched duplex DNA oligonucleotides, measured as fluorescence at 594 nm. To generate a functional strand incision and increase turn-over this assay is coupled to APE1.

[8] = target: Methyl-CpG-binding domain protein 4 (Homo sapiens) (UniProt O95243); settings: Compound Concentration 10.0 uM, Hit No;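 note: MBD4 activity read as fluorescence at 594 nm from cleavage and release of a quenched duplex DNA oligonucleotide, with APE1 coupled to incise the strand and raise turnover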
Description: Inhibition of MBD4 by quantifying inhibition of MBD4-mediated cleavage and dissociation of quenched duplex DNA oligonucleotides, measured as fluorescence at 594 nm. To generate a functional strand incision and increase turn-over this assay is coupled to APE1.

[9] = target: N-glycosylase/DNA lyase (Homo sapiens) (UniProt O15527); settings: Compound Concentration 10.0 uM;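 note: OGG1 cleavage of a quenched duplex DNA oligonucleotide, coupled to APE1 for strand incision, read as fluorescence at 594 nm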
N-glycosylase/DNA lyase (Homo sapiens), sequence (O15527 whole entry): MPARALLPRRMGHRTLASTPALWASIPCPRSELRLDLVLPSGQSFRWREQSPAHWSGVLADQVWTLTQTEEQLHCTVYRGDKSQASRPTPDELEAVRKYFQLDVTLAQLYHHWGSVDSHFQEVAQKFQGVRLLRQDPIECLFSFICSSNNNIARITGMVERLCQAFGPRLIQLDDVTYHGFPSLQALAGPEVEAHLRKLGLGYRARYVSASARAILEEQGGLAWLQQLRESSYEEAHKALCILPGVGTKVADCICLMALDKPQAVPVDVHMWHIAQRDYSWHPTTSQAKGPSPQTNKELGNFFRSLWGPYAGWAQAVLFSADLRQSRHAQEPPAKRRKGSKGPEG
Description: Inhibition of OGG1 by quantifying inhibition of OGG1-mediated cleavage and dissociation of quenched duplex DNA oligonucleotides, measured as fluorescence at 594 nm. To generate a functional strand incision and increase turn-over this assay is coupled to APE1.

DNA-3-methyladenine glycosylase (Homo sapiens), sequence (P29372 whole entry, the tested form may be a part): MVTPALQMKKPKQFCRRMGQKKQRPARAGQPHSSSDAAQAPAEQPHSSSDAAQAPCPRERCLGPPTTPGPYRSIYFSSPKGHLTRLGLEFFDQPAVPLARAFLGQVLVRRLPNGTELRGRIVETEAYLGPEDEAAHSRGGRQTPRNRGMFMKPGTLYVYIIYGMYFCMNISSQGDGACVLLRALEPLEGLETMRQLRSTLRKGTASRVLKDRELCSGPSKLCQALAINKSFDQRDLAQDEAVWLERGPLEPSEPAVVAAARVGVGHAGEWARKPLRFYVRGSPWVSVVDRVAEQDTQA
Uracil-DNA glycosylase (Homo sapiens), sequence (P13051 whole entry): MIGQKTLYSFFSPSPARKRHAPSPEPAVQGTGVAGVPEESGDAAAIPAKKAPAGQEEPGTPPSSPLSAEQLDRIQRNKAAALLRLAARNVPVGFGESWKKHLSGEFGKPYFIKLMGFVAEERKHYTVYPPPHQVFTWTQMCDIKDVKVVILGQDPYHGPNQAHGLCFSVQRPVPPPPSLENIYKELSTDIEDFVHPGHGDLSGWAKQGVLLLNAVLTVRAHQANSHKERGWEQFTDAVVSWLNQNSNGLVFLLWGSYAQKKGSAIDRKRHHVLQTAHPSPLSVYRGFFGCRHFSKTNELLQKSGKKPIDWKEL
G/T mismatch-specific thymine DNA glycosylase (Homo sapiens), sequence (Q13569 whole entry): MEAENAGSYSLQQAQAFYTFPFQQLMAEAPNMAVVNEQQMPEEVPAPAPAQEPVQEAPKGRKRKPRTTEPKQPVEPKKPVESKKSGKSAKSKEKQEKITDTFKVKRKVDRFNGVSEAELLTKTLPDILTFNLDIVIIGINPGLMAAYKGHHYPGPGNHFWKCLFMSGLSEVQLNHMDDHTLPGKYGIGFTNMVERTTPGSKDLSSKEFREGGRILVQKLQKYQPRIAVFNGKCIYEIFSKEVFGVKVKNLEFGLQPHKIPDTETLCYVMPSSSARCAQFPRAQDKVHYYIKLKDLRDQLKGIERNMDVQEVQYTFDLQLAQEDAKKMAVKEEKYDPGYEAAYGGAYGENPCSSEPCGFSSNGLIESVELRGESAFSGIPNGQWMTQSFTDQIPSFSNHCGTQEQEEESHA
Methyl-CpG-binding domain protein 4 (Homo sapiens), sequence (O95243 whole entry, the tested form may be a part): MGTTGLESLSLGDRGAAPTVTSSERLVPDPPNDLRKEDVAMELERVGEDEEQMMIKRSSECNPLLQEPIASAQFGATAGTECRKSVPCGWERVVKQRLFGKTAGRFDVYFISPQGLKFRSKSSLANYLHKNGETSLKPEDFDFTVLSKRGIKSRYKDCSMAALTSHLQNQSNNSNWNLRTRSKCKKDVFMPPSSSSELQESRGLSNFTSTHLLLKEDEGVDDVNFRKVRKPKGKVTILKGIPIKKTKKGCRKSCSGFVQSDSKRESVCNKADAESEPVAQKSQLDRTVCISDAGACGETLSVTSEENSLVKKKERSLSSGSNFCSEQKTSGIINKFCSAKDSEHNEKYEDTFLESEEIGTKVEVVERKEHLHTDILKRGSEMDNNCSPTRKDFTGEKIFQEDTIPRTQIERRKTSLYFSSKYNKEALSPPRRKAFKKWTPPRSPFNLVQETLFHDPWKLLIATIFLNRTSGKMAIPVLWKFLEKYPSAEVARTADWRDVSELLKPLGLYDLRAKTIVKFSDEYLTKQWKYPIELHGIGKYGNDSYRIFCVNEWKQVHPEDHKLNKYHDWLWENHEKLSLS
Endonuclease 8-like 1 (Homo sapiens), sequence (Q96FI4 whole entry): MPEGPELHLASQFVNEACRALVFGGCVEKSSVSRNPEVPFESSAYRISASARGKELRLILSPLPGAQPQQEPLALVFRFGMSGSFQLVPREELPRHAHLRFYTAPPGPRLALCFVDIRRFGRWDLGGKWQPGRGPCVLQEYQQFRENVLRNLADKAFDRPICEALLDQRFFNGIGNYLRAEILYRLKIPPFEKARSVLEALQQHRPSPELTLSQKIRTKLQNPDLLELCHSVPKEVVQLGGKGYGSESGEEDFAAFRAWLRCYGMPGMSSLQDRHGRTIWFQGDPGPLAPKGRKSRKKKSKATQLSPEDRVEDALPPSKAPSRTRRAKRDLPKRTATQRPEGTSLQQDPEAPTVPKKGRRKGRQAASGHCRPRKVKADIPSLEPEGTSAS

Compound	inhibition [1]	inhibition [2]	inhibition [3]	inhibition [4]	inhibition [5]	inhibition [6]	inhibition [7]	inhibition [8]	inhibition ([9]; Hit No)	inhibition ([9]; Hit Yes)
COc1ccccc1/C=N/NC(=O)COc1ccc(Cl)cc1C	14%	18.2%	-3.15%	-5.19%	10.8%	8.6%	9.76%	18.4%	2.66%	
Cc1cc(-c2ccc3c(c2)CC[C@H]3N2CC3(CCN(C(=O)Cc4cn5cc(C)sc5n4)CC3)C2)ncn1	-0.24%	6.67%		-6.41%	0.491%	-1.18%	-2.4%	2.75%	-7.69%	
CC[C@@H]1C(=O)N(C)c2cnc(Nc3ccc(C(=O)NC4CCN(C)CC4)cc3OC)nc2N1C1CCCC1	23.4%	69.8%		13.3%	38.1%	2.78%	7.81%	33%	-5.59%	
COc1ccc2[nH]cc(CCNC(C)=O)c2c1	-7.74%	5.88%	1.51%	-7.83%	19.4%	1.13%	-3.95%	-1.65%	-4.66%	
CN(C)c1ccnc2sc3c(=O)n(N4CCCCCC4)cnc3c12	-6.77%	5.33%	16%		6.93%	7.65%	2.57%	-2.87%	18.5%	
COc1ccc(S(=O)(=O)N2c3ccc(Cl)cc3[C@](O)(c3ccccc3Cl)[C@@H]2C(=O)N2CCC[C@H]2C(N)=O)cc1OC	-8.03%	10.6%	-0.733%	-8.37%	28.9%	-2.72%	8.66%	-7.23%	-5.95%	
COc1cc(C(=O)N(CCCc2ccccc2)Cc2ccc(CC(=O)O)cc2)cc(OC)c1C	-4.44%	17.3%	-7.97%		20.4%	-1.83%	2.65%	21.5%	-6.84%	
COc1c(Nc2ccc(S(C)(=O)=O)nc2C)ncnc1OC1CCN(C(=O)OC(C)C)CC1	-7.64%	-5.57%	6%		16.4%	-6.28%	-8.34%	-6.99%	-1.26%	
O=C(Nc1ccc(Cl)nc1)c1ccc(Cl)cc1	3.71%	21.2%	5.25%	1.37%	26.6%	6.68%	18.7%	19.3%	6.76%	
CCCCc1oc2ccccc2c1C(=O)c1cc(I)c(OCCN(CC)CC)c(I)c1	15.3%	30.6%	-6.36%	1.42%	-0.487%		5.3%	28.2%	0.672%	
COCCn1c(C)c(C)s/c1=N\C(=O)C1C(C)(C)C1(C)C	-0.421%	7.06%	1.51%	-7.32%	20.8%	3.06%	-8.69%	-7.23%	5.33%	
CC(C1CC2CCC1C2)n1c(S)nnc1-c1ccco1 (centres undefined)	13.7%	22.6%	9.84%	-6.26%	19.9%	1.64%	19.5%	23.6%	-7.6%	
CCOC(=O)c1cc(C#N)c(N2CCC(C(=O)NS(=O)(=O)Cc3ccccc3)CC2)nc1C	7.04%	22.6%	-3.73%	-6.55%	13.3%	-0.649%	0.797%	12%	4.63%	
CC(Cc1ccc(O)c(O)c1)C(C)Cc1ccc(O)c(O)c1 (centres undefined)	-6.33%	40%	0.265%	1.91%	35.6%	12.4%	19.4%	58.5%	28.8%	
CSc1ccc(C(=O)N[C@@H]2CCCC[C@@H]2NC(=O)CNC(=O)c2cc(C(F)(F)F)ccc2NC(=O)NC(C)C)cc1	0.0151%	20.7%	14.5%	-0.695%	2.07%	0.537%	-1.67%	13.3%	-0.224%	
COc1ccc(Br)cc1S(=O)(=O)NC(=O)/C=C/c1ccccc1Cc1ccc2ccccc2c1	-2.31%	2.91%	6.5%		5.65%	0.537%	-3.79%	18%	30.2%	
Cc1cccc(S(=O)(=O)N(C)[C@H](C)CCN2CCC(C)CC2)c1	1.46%	1.58%	6.53%	-5.83%	9.55%	1.79%	-2.23%	3.33%		
CC(C)NC(=O)c1ccc(C#Cc2ccncc2)cn1	2.68%	8.93%	5.76%		12.7%	7.51%	-5.61%	-1.07%	2.41%	
CC(C)N(CCCCOCC(=O)NS(C)(=O)=O)c1cnc(-c2ccccc2)c(-c2ccccc2)n1	-1.68%	51%	6.75%		47.5%	9.29%	55.8%	80.6%	17.1%	
CCc1cc2c(c(CC)n1)CCC(=O)N2Cc1ccc(-c2ccccc2-c2nnn[nH]2)cc1	-8.27%	13.7%	2.26%		24.1%	13.9%	6.08%	2.76%	6.16%	
CCCCC#Cc1nc(NC)c2ncn([C@@H]3O[C@H](CO)[C@@H](O)[C@H]3O)c2n1	-0.13%	-7.72%	5.51%		-0.235%	-4.5%	-9.85%	0.324%	-7.52%	
CC(COc1ccccc1)N(CCCl)Cc1ccccc1 (centres undefined)	-8.75%	9.17%	5.01%		20.2%	-3.32%	8.43%	6.02%		41.7%
CCCc1nc2c(C)cc(-c3nc4ccccc4n3C)cc2n1Cc1ccc(-c2ccccc2C(=O)O)cc1	3.75%	18.9%	15.5%	-6.03%	24.6%	15.1%	-0.129%	15.7%		
CC(=O)Nc1nc2c(Oc3cc(-c4ccc(C(F)(F)F)cc4)ncn3)cccc2s1	-4.87%	-3.88%	-1.88%	-3.19%	-8.12%	4.31%	11.2%	1.85%		
NS(=O)(=O)c1cncc(-c2nc(NCc3ccccn3)c3c(-c4ccccc4)cccc3n2)c1	7.73%	14.7%	-1.88%	0.783%	8.92%	10.4%	0.0701%	16%		
